The values below are quoted from earlier work in patent US20070254015A1, “Sanitizing surfaces” (Searete LLC, a limited liability corporation of the State …, priority 2006, published 2007).

Data set [1] relates to Human Immunodeficiency Virus (HIV-1).
[2] abbreviates: Table I, liquid sanitizing agents.
The mark [3] stands for this setting: Table II, liquid sanitizing agents for gloves.

Like-named read-outs stand apart in the source and are kept apart here.

Take `CCO` [Ethyl Alcohol]: the “Known Minimum Concentration by Volume for Immediately Sterilizing Human Immunodeficiency Virus (HIV-1)” value (shortened to “Known Minimum Concentration by Volume … (HIV-1)”) in data set [1] (setting [2]) and in data set [1] (setting [3]) was 50% in each case. For the same compound, the “Known Minimum Concentration by Volume for Immediately Sterilizing Hepatitis B Virus” value with Hepatitis B Virus (setting [2]) and in the data set with Hepatitis B Virus (setting [3]) was 80% throughout.

As for `OO` [Hydrogen Peroxide], the “Known Minimum Concentration by Volume … (HIV-1)” value in data set [1] (setting [2]) and in data set [1] (setting [3]) was 0.3% in each case.

As for `CC(C)O` [Isopropyl Alcohol], the “Known Minimum Concentration by Volume … (HIV-1)” value in data set [1] (setting [2]) and in data set [1] (setting [3]) was 30% throughout. The “Known Minimum Concentration by Volume for Immediately Sterilizing Hepatitis B Virus” value with Hepatitis B Virus (setting [2]) and with Hepatitis B Virus (setting [3]) was 70% each time.

In the case of ethylphenyl-polyethylene glycol [NP-40], the “Known Minimum Concentration by Volume … (HIV-1)” value in data set [1] (setting [2]) and in data set [1] (setting [3]) was 1% each time.
